# Source: US9388126B2, “Sigma receptor ligands and methods of modulating cellular protein homeostasis using same” (Drexel University, priority 2012, dated 2016)
# How the values were obtained:
# Type in all cases: cell-based, human
# [1] = test system: MDA-MB-468 (GFP-LC3) cells; experiment: GFP-LC3 punctae (autophagosome formation) microscopy assay; details: for mean number of punctae per cell: 10 μM, 24 hours
# Procedure: The human GFP-LC3 expression plasmid, pEGFP-LC3 (a gift from Drs. Grazia Ambrosini and Gary K. Schwartz, MSKCC), was stably transfected into MDA-MB-468 and selected with 0.5 mg/ml G418 sulfate. Stable populations were generated and compared to parental MDA-MB-468 for Sigma1 expression and autophagic and growth inhibitory response to Sigma ligands. GFP-LC3 translocation (punctae formation) was assessed by microscopy in MDA-MB-468 (GFP-LC3) stable cell populations. For microscopy-based experiments, cells were seeded onto Lab-Tek II glass chamber slides (Nalge Nunc International). […] Images of GFP-LC3 punctae were acquired with a Zeiss Axioplan 2 Imaging widefield microscope using Axiovision LE software. Punctae were counted using the spot quantitation program in the Fluoro-Chem software package (Alpha Innotech) and confirmed in parallel by manual counting. Autophagosome formation in MDAMB-468 (GFP-LC3) cells was quantitated as the mean number of GFP-LC3 punctae per GFP positive cell.
# Initially, an established immunoblot-based assay to detect microtubule associated protein light chain 3 (LC3) lipidation was used to test for the activation of autophagy. […] Since transient transfections can produce spurious GFP-LC3 aggregates, stable GFP-LC3 transfected populations of MDA-MB-468 (GFP-LC3) were generated. […]
# [2] = test system: MDA-MB-468 breast adenocarcinoma cells; experiment: LC3 lipidation (LC3II) immunoblot; details: 10 μM, 24 hours
# Procedure: Cells were lysed and proteins extracted in a modified RIPA buffer (25 mM Tris-HCl pH 7.6, 150 mM NaCl, 1% NP-40, 1% sodium deoxycholate and 0.1% SDS) supplemented with 10% glycerol (volume/volume), complete protease inhibitor cocktail (Roche), and Halt phosphatase inhibitor cocktail (Pierce). Approximately 10-20 μg of detergent soluble protein were resolved on NOVEX 10-20% polyacrylamide Tris-glycine gels (InVitrogen). Immunoblots were performed in a 20 mM Tris-buffered 137 mM saline solution (pH 7.6) containing 0.1% Tween-20 (polyoxyethylene (20) sorbitan monolaurate) and 5% (weight/volume) blotting grade non-fat dry milk (BioRad). The Lumigen PS-3 enhanced chemiluminescence kit (GE Healthcare) was used to reveal immunoblotted proteins.
# Initially, an established immunoblot-based assay to detect microtubule associated protein light chain 3 (LC3) lipidation was used to test for the activation of autophagy. […] Since transient transfections can produce spurious GFP-LC3 aggregates, stable GFP-LC3 transfected populations of MDA-MB-468 (GFP-LC3) were generated. These cells were treated for 24 hours with increasing concentrations of Sigma receptor antagonists and agonists, and were compared to basal and DMSO treated controls (FIGS. 4B & 4C).
# [3] = test system: MCF-7, T47D and MDA-MB-468 cells; experiment: Cell proliferation by Alamar blue reduction, breast adenocarcinoma cultures; details: after 4 days of treatment, six drug concentrations
# Source text: In vitro cell proliferation was quantitated by Alamar blue reduction. The anti-proliferative effects of six drug concentrations of the indicated drugs were quantitated after 4 days of treatment.
# [4] = test system: PC3 cells; experiment: PC3 cell death by trypan blue exclusion; details: 5 μM
# Procedure: FIG. 1, comprising FIGS. 1A-1B, illustrates prostate adenocarcinoma cell death induced by Sigma1 antagonists. […] Quantitated cell death was presented as the percentage of trypan blue positive cells per drug treated population. Salient cell death occurred following ˜24-48 hours of treatment with the Sigma antagonist.
# Cell death was evaluated by trypan blue exclusion assay, as well as cleaved caspase 3 (Asp 175) and cleaved PARP (Asp 214) immunoblot. Trypan blue exclusion and propidium iodide staining were used to quantify general cell death and the presence of apoptotic cell death was confirmed by immunoblot. The percentage of dead cells in a given population was determined by quantifying the number of trypan blue positive (dead) cells and dividing by the total number of trypan blue positive and negative cells.
# [5] = test system: PC3 prostate cancer cells; experiment: LC3BII immunoblot, prostate cancer cells; details: 10 μM, 24 hours
# Procedure: FIG. 16, comprising FIGS. 16A-16B, illustrates Sigma antagonist associated autophagy. FIG. 16A illustrates representative images of the translocation of GFP-tagged LC3 (LC3-GFP) into autophagosomes in a control (DMSO) group and a haloperidol-treated group (10 μM, antagonist). FIG. 16B is an image of a gel illustrating increased levels of the microtubule-associated protein light chain 3BII isoform (CL3BII), which is a broadly used indicator of activated autophagy.
# Sigma antagonist-induced ER stress led to the activation of autophagy in several tumor cell lines, including PC3 prostate cancer cells (FIG. 16). In preliminary experiments, an immunoblot assay was performed to detect the formation of the lipid-conjugated form of microtubule associated protein light chain 3 (LC3II), a widely used marker of autophagosome formation (FIG. 16).
# [6] = test system: PC3 and DU145 PCa cells; experiment: UPR induction in prostate cancer cell lines; details: preliminary experiments
# Source text: FIG. 15 is an image of an immunoblot illustrating induction of UPR in a prostate cancer cell line. […] P-IRE1α indicates phosphorylated IRE1α. Similar results were obtained with DU145 prostate cancer cells.
# This might be due to an accumulation of ubiquitylated proteins or due to an increase in ubiquitin ligase activity. Progression of the ER stress response could be monitored by a set of markers, many of which have been directly linked to the UPR. The most extensively investigated sensors that initiate the UPR are IRE1α, PERK, and ATF6, which transduce signals to a cascade of effectors. Many of these UPR 4 effectors function as transcription factors that induce the synthesis of ER chaperones, such as GRP78/BiP and GRP94, involved in maintaining protein homeostasis.
# [7] = test system: PC3 prostate adenocarcinoma cells; experiment: Ubiquitin (P4D1) immunoblot, prostate adenocarcinoma cells; details: 10 μM
compound,measurement,setting,value
"O=C(CCCN1CCC(O)(c2ccc(Cl)cc2)CC1)c1ccc(F)cc1 [haloperidol, 4-[4-(4-chlorophenyl)-4-hydroxy-1-piperidyl]-1-(4-fluorophenyl)-butan-1-one]",mean number of punctae per cell,[1]; knockdown of Beclin1,17±1 punctae per cell
same,mean number of punctae per cell,[1]; without Beclin1 knockdown,36±4 punctae per cell
same,concentration at which precipitous cell death occurred,[1]; following 24 hours of treatment,40 µM
same,conversion of LC3 to LC3II (autophagosome formation),[2],converted LC3 to LC3II
same,inhibition of cell proliferation,[3],also inhibited cell proliferation
same,treatment time after which salient cell death occurred,[4],24 to 48 h
same,LC3BII levels,[5],salient induction of LC3BII levels
same,IRE1α and BiP levels,[6],salient induction of IRE1α and BiP levels
same,level of ubiquitinated proteins,[7],increased level of ubiquinated proteins
